pIC50: −log10 of the molar value. Where two headings read alike, the source gives them in different places.
What was measured:
[1] = target: T1, full-length beta-Catenin (Uniprot ID P35222) (Homo sapiens, UniProt P35222); test: Fluorescence polarization IC50 (beta-catenin / 5FAM-TCF4 10-53 competition); assay type: binding
T1 construct: 10 nM full-length beta-Catenin (Uniprot ID P35222)
T1 sequence (P35222 1-781): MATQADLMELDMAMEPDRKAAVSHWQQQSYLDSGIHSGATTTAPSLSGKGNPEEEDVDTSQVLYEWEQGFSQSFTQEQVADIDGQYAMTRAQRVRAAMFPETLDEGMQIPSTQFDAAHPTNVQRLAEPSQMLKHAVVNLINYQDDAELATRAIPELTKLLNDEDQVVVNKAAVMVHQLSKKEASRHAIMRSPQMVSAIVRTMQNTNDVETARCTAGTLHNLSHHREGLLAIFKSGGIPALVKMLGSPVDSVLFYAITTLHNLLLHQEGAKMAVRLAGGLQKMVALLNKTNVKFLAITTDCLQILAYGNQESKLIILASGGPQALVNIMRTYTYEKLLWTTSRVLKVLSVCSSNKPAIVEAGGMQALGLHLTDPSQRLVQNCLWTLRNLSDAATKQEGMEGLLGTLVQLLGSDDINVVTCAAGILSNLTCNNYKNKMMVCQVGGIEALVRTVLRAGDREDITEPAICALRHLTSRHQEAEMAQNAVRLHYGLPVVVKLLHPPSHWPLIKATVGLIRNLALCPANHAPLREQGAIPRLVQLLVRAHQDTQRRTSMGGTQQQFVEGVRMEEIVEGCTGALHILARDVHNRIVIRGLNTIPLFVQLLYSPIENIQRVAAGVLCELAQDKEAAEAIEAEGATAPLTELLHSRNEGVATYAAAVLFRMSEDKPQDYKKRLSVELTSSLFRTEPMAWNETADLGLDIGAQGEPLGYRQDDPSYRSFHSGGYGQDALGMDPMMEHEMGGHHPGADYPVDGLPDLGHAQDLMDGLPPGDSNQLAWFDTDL

CHI Log D procedure = assay type: physicochemical
[2] = fluorescence polarization, beta-catenin, read-out: FP EC50
[3] = fluorescence polarization, read-out: beta-Catenin FP IC50
[4] = Table E2-1, read-out: beta-Catenin FP IC50

| Structure (SMILES) | CHI Log D (CHI Log D procedure; pH 7.4) | pIC50 [1, 3] | chromatographic logD (CHI Log D procedure; pH 7.4, CHI Log D) | other results |
| --- | --- | --- | --- | --- |
| CC(=O)N1CCC[C@]12CC=CCCCC1(CCCC=CCCCOC(=O)N3CC[C@@](C(=O)N[C@@H](Cc4ccsc4)C(=O)N[C@@H](Cc4csc5ccccc45)C(=O)N[C@@H](C)C(N)=O)(C3)NC(=O)[C@H](CC(N)=O)NC(=O)[C@H](Cc3ccccc3)NC(=O)[C@H](C)NC(=O)[C@H](C)NC(=O)[C@H](CN(CC(=O)O)CC(F)(F)F)NC(=O)[C@H](CC(=O)O)NC1=O)NC(=O)[C@H](CC(C)(C)C)NC(=O)[C@H](CC(=O)O)NC2=O (stereo partly drawn) [I-945, Ac-PL3-Asp-Npg-B5-Asp-TfeGA-Ala-Ala-Phe-Asn-PyrS2-3Thi-BztA-Ala-NH2] | 2.104 | – | – | pIC50 [1, 2]: 5.97; pIC50 ([1]; read-out: beta-Catenin FP IC50): 5.97 |
| CC[C@H](C)[C@@H]1NC(=O)C[C@H](C(=O)O)NC(=O)[C@]2(CC=CCCCC3(CCCC=CCCCCCC[C@@](C)(C(=O)N[C@@H](Cc4ccccc4)C(=O)N[C@@H](Cc4csc5ccccc45)C(=O)N[C@@H](CCC(N)=O)C(N)=O)NC(=O)[C@H](CCC(N)=O)NC(=O)[C@H](Cc4ccccc4)NC(=O)[C@H](C)NC(=O)[C@H](C)NC(=O)[C@H](CCC(=O)O)NC(=O)[C@H](CC(=O)O)NC3=O)NC1=O)CCCN2C(C)=O (stereo partly drawn) [I-668, Ac-PL3-isoDAsp-Ile-B5-Asp-Glu-Ala-Ala-Phe-Gln-S8-Phe-BztA-Gln-NH2] | 2.199 | 6.17 | – | pIC50 ([1]; read-out: FP EC50): 6.17 |
| CC[C@H](C)[C@@H]1NC(=O)[C@H](CC(=O)O)NC(=O)[C@]2(CC=CCCCC3(CCCC=CCCCCCC[C@@](C)(C(=O)N[C@@H](Cc4ccccc4OC)C(=O)N[C@@H](Cc4csc5ccccc45)C(=O)N[C@@H](CCC(N)=O)C(N)=O)NC(=O)[C@H](CCC(N)=O)NC(=O)[C@H](Cc4ccccc4)NC(=O)[C@H](C)NC(=O)[C@H](C)NC(=O)[C@H](CCC(=O)O)NC(=O)[C@H](CC(=O)O)NC3=O)NC1=O)CCCN2C(C)=O (stereo partly drawn) [I-527, Ac-PL3-Asp-Ile-B5-Asp-Glu-Ala-Ala-Phe-Gln-S8-2OMeF-BztA-Gln-NH2] | 2.376 | 7.01 | – | pIC50 ([1]; read-out: FP EC50): 7.01 |
| CC(=O)N1CCC[C@]12CC=CCCCC1(CCCC=CCCCCCC[C@@](C)(C(=O)N[C@@H](Cc3ccccc3)C(=O)N[C@@H](Cc3csc4ccccc34)C(=O)N[C@@H](Cc3c[nH]cn3)C(N)=O)NC(=O)[C@H](CCC(N)=O)NC(=O)[C@H](Cc3ccccc3)NC(=O)[C@H](C)NC(=O)[C@H](C)NC(=O)[C@H](CCC(=O)O)NC(=O)[C@H](CC(=O)O)NC1=O)NC(=O)[C@H](C)NC(=O)[C@H](CC(=O)O)NC2=O (stereo partly drawn) [I-419, Ac-PL3-Asp-Ala-B5-Asp-Glu-Ala-Ala-Phe-Gln-S8-Phe-BztA-His-NH2] | 2.114 | 7.64 | – | pIC50 ([1]; read-out: FP EC50): 7.64 |
| CC(=O)N1CCC[C@]12CC=CCCCC1(CCCC=CCCCOC(=O)N3CC[C@@](C(=O)N[C@@H](Cc4ccsc4)C(=O)N[C@@H](Cc4csc5ccccc45)C(=O)N[C@@H](CCC(N)=O)C(=O)N[C@@H](CCCCNC(=O)CCc4cc(C(F)(F)F)cc(C(F)(F)F)c4)C(N)=O)(C3)NC(=O)[C@H](CC(N)=O)NC(=O)[C@H](Cc3ccccc3)NC(=O)[C@H](C)NC(=O)[C@H](C)NC(=O)[C@H](CC(=O)O)NC(=O)[C@H](CC(=O)O)NC1=O)NC(=O)[C@H](CC(C)(C)C)NC(=O)[C@H](CC(=O)O)NC2=O (stereo partly drawn) [I-902, Ac-PL3-Asp-Npg-B5-Asp-Asp-Ala-Ala-Phe-Asn-PyrS2-3Thi-BztA-Gln-[35CF3PhPr]Lys-NH2] | – | – | 2.69 | pIC50 ([1]; read-out: beta-Catenin FP IC50): 6.98 |
| CC(=O)N1CCC[C@]12CC=CCCCC1(CCCC=CCCCCCC[C@@](C)(C(=O)N[C@@H](Cc3cccc(F)c3)C(=O)N[C@@H](Cc3c[nH]c4ccccc34)C(=O)N[C@@H](CCC(N)=O)C(N)=O)NC(=O)[C@H](C(C)C)NC(=O)[C@H](Cc3ccccc3)NC(=O)[C@H](C)NC(=O)[C@H](C)NC(=O)[C@H](CC(=O)O)NC(=O)[C@H](CC(=O)O)NC1=O)NC(=O)[C@H](C)NC(=O)[C@H](CC(=O)O)NC2=O (stereo partly drawn) [I-260, Ac-PL3-Asp-Ala-B5-Asp-Asp-Ala-Ala-Phe-Val-S8-3FF-Trp-Gln-NH2] | – | – | 2.06 | pIC50 [1, 4]: 5.30 |
| CC(=O)N1CCC[C@]12CC=CCCCC1(CCCC=CCOC(=O)N(C)CCC[C@@](C)(C(=O)N[C@@H](Cc3ccccc3)C(=O)N[C@@H](Cc3c[nH]c4ccccc34)C(=O)N[C@@H](CCC(N)=O)C(N)=O)NC(=O)[C@H](C(C)C)NC(=O)[C@H](Cc3ccccc3)NC(=O)[C@H](C)NC(=O)[C@H](C)NC(=O)[C@H](CCC(=O)O)NC(=O)[C@H](CC(=O)O)NC1=O)NC(=O)[C@H](C)NC(=O)[C@H](CC(=O)O)NC2=O (stereo partly drawn) [I-131, Ac-PL3-Asp-Ala-B5-Asp-Glu-Ala-Ala-Phe-Val-SeN-Phe-Trp-Gln-NH2] | 1.496 | – | – | pIC50 [1, 4]: 5.67; pIC50 [1, 2]: 5.67 |
| CC(=O)N1CCC[C@]12CC=CCCCC1(CCCC=CCCCCCC[C@@](C)(C(=O)N[C@@H](Cc3ccccc3C)C(=O)N[C@@H](Cc3csc4ccccc34)C(=O)N[C@@H](CCC(N)=O)C(N)=O)NC(=O)[C@H](C)NC(=O)[C@H](Cc3ccccc3)NC(=O)[C@H](C)NC(=O)[C@H](C)NC(=O)[C@H](CC(=O)O)NC(=O)[C@H](CC(=O)O)NC1=O)NC(=O)[C@H](C)NC(=O)[C@H](CC(=O)O)NC2=O (stereo partly drawn) [I-367, Ac-PL3-Asp-Ala-B5-Asp-Asp-Ala-Ala-Phe-Ala-S8-2MeF-BztA-Gln-NH2] | – | – | 2.15 | pIC50 [1, 4]: 6.75 |
| CC[C@H](C)[C@@H]1NC(=O)[C@H](CC(=O)O)NC(=O)[C@]2(CC=CCCCC3(CCCC=CCCCCCC[C@@](C)(C(=O)N[C@@H](Cc4ccccc4)C(=O)N[C@@H](Cc4csc5ccccc45)C(=O)N[C@@H](CCC(N)=O)C(N)=O)NC(=O)[C@H](CCCCNC(=O)CN=[N+]=[N-])NC(=O)[C@H](Cc4ccccc4)NC(=O)[C@H](C)NC(=O)[C@H](C)NC(=O)[C@H](CCC(=O)O)NC(=O)[C@H](CC(=O)O)NC3=O)NC1=O)CCCN2C(C)=O (stereo partly drawn) [I-594, Ac-PL3-Asp-Ile-B5-Asp-Glu-Ala-Ala-Phe-[AzAc]Lys-S8-Phe-BztA-Gln-NH2] | – | – | – | IC50 ([1]; FP EC50 (nM)): 87 nM; chromatographic logD (CHI Log D procedure; pH 7.4): 2.61 |
| CC(=O)N1CCC[C@]12CC=CCCCC1(CCCC=CCCCCCC[C@@](C)(C(=O)N[C@@H](Cc3ccccc3)C(=O)N[C@@H](Cc3ccc4ccccc4n3)C(=O)N[C@@H](CCC(N)=O)C(N)=O)NC(=O)[C@H](C(C)C)NC(=O)[C@H](Cc3ccccc3)NC(=O)[C@H](C)NC(=O)[C@H](C)NC(=O)[C@H](CCC(=O)O)NC(=O)[C@H](CC(=O)O)NC1=O)NC(=O)[C@H](C)NC(=O)[C@H](CC(=O)O)NC2=O (stereo partly drawn) [I-143, Ac-PL3-Asp-Ala-B5-Asp-Glu-Ala-Ala-Phe-Val-S8-Phe-Qui-Gln-NH2] | – | – | 2.07 | pIC50 [1, 4]: 5.64 |
| CC(=O)N1CCC[C@]12CC=CCCCC1(CCCC=CCCCOC(=O)N3CC[C@@](C(=O)N[C@@H](Cc4ccsc4)C(=O)N[C@@H](Cc4csc5ccccc45)C(=O)N[C@@H](CO)C(N)=O)(C3)NC(=O)[C@H](Cc3ccccc3)NC(=O)[C@H](Cc3ccccc3)NC(=O)[C@H](C)NC(=O)[C@H](C)NC(=O)[C@H](CN(CC(=O)O)CC(F)(F)F)NC(=O)[C@H](CC(=O)O)NC1=O)NC(=O)[C@H](CC(C)(C)C)NC(=O)[C@H](CC(=O)O)NC2=O (stereo partly drawn) [I-962, Ac-PL3-Asp-Npg-B5-Asp-TfeGA-Ala-Ala-Phe-Phe-PyrS2-3Thi-BztA-Ser-NH2] | 2.046 | – | – | pIC50 [1, 2]: 6.39; pIC50 ([1]; read-out: beta-Catenin FP IC50): 6.39 |
| CC(=O)N1CCC[C@]12CC=CCCCC1(CCCC=CCCCOC(=O)N3CC[C@@](C(=O)N[C@@H](Cc4ccsc4)C(=O)N[C@@H](Cc4csc5ccccc45)C(=O)N[C@@H](Cc4c[nH]cn4)C(N)=O)(C3)NC(=O)[C@H](CC(N)=O)NC(=O)[C@H](Cc3ccccc3)NC(=O)[C@H](C)NC(=O)[C@H](C)NC(=O)[C@H](CC(=O)O)NC(=O)[C@H](CC(=O)O)NC1=O)NC(=O)[C@H](CC(C)(C)C)NC(=O)[C@H](CC(=O)O)NC2=O (stereo partly drawn) [I-695, Ac-PL3-Asp-Npg-B5-Asp-Asp-Ala-Ala-Phe-Asn-PyrS2-3Thi-BztA-His-NH2] | 2.117 | 8.30 | – | – |
| CC[C@H](C)[C@@H]1NC(=O)C[C@H](C(=O)O)NC(=O)[C@]2(CC=CCCCC3(CCCC=CCCCCCC[C@@](C)(C(=O)N[C@@H](Cc4ccccc4)C(=O)N[C@@H](Cc4csc5ccccc45)C(=O)N[C@@H](CCC(N)=O)C(N)=O)NC(=O)[C@H](CCC(N)=O)NC(=O)[C@H](Cc4ccccc4)NC(=O)[C@H](C)NC(=O)[C@H](C)NC(=O)[C@H](CCC(=O)O)NC(=O)[C@H](CC(=O)O)NC3=O)NC1=O)CCCN2C(C)=O (stereo partly drawn) [I-669, Ac-PL3-isoDAsp-Ile-B5-Asp-Glu-Ala-Ala-Phe-Gln-S8-Phe-BztA-Gln-NH2] | 2.25 | 6.35 | – | pIC50 ([1]; read-out: FP EC50): 6.35 |
| CC(=O)N1CCC[C@]12CC=CCCCC1(CCCC=CCCCCCC[C@@](C)(C(=O)N[C@@H](Cc3cccc(C)c3)C(=O)N[C@@H](Cc3csc4ccccc34)C(=O)N[C@@H](CCC(N)=O)C(N)=O)NC(=O)[C@H](C(C)C)NC(=O)[C@H](Cc3ccccc3)NC(=O)[C@H](C)NC(=O)[C@H](C)NC(=O)[C@H](CCC(=O)O)NC(=O)[C@H](CC(=O)O)NC1=O)NC(=O)[C@H](C)NC(=O)[C@H](CC(=O)O)NC2=O (stereo partly drawn) [I-395, Ac-PL3-Asp-Ala-B5-Asp-Glu-Ala-Ala-Phe-Val-S8-3MeF-BztA-Gln-NH2] | – | 5.30 | 4.07 | – |

Reference: patent US20240116985A1, “STAPLED PEPTIDES AND METHODS THEREOF” (priority 2020, published 2024)
